# Earlier results in PMC4008261, “Rewiring of regenerated axons by combining treadmill training with semaphorin3A inhibition” (Molecular Brain, 2014).
# Tests used:
# semaphorin3A = system: semaphorin3A; parameters: method as in PMID 17099709; details: in vitro and in vivo; cited from earlier work
# SCT adult rats = system: SCT adult rats; parameters: method as in PMID 17099709; details: adult rats after total spinal cord transection (SCT), osmotic mini-pump; cited from earlier work
compound,measurement,setting,value
"CC(=O)c1c(C)c(/C(O)=C2\COc3cc(O)c(O)c(C(=O)O)c3C2=O)cc2c(=O)c3c(C(=O)O)c(O)c(O)cc3oc12 [SM-216289, xanthofulvin]",inhibition of semaphorin3A signaling,semaphorin3A,selectively inhibits semaphorin3A signaling both in vitro and in vivo
same,axonal regeneration and motor function recovery,SCT adult rats,led to axonal regeneration and motor function recovery
